The source of these data is patent publication US8580829B2 (Boehringer Ingelheim International GmbH, priority 2010, dated 2013).

SMILES strings stand for the structures.

The target in experiment [1] is T1, recombinant human FLAP protein (Homo sapiens, UniProt P20292).
T1 construct: made in house; host or cells: Sf9 insect cells (100,000 x g membrane fraction)
T1 sequence (P20292 1-161): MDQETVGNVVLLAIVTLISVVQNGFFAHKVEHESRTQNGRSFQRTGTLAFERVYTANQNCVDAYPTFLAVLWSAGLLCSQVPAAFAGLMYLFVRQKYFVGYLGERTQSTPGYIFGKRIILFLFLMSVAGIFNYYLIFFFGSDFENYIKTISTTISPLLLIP
Put plainly: FLAP binding assay (Scintillation Proximity Assay, displacement of [125I]L-691,831). The following applies: recombinant human FLAP membranes, [125I]L-691,831 probe; read-out: FLAP SPA IC50. The method, boiled down:
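Membranes came from Sf9 insect cells expressing recombinant human FLAP, collected as the 100,000×g pellet in Tris pH 7.5/MgCl2/EDTA buffer. 5 μg membrane protein was coupled to WGA SPA beads for 1 h.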
(Scintillation proximity formats need no separation of bound from free tracer.)

Experiment [2] concerns synthesis of LTB4 in human whole blood. The experiment in a line: human whole blood LTB4 production inhibition assay. Format: cell-based. Conditions: Homo sapiens, heparinized human whole blood, calcimycin 20 μM; read-out: hWB LTB4 IC50. In short, it runs like this:
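Readout: plasma LTB4 by antibody-based HTRF. Compound added to heparinized human whole blood, 15 min 37° C; calcimycin 20 μM final (PBS pH 7.4), 30 min 37° C; spun 1500×g 5 min, plasma taken.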

Take `Nc1ncc(-c2ccc(C3(c4noc(-c5cocn5)n4)CCC3)cc2)cn1` [Example 189, 5-{4-[1-(5-Oxazol-4-yl-1,2,4-oxadiazol-3-yl)-cyclobutyl]-phenyl}-pyrimidin-2-ylamine]: the IC50 (in general, the point on the concentration scale where inhibition reaches its midpoint) in experiment [1] was 8.1 nM; in experiment [2], 310 nM.
On to `Nc1ncc(-c2ccc(C3(c4noc(-c5cnn(CC(=O)NCC(F)(F)F)c5)n4)CCC3)cc2)cn1` [Example 140, 2-[4-(3-{1-[4-(2-Amino-pyrimidin-5-yl)-phenyl]-cyclobutyl}-1,2,4-oxadiazol-5-yl)-pyrazol-yl]-N-(2,2,2-trifluoro-ethyl)-acetamide], for which the IC50 in experiment [1] amounted to 4.4 nM; in experiment [2], 68 nM.
The corresponding values for `CN(C)S(=O)(=O)n1cc(-c2nc(C3(c4ccc(-c5cnc(N)nc5)cc4)CCC3)no2)cn1` [Example 135] are 10.4 nM and 190 nM.
Taken in the same sequence, the figures for `COC1CN(C(=O)Cn2cc(-c3nc(C4(c5ccc(-c6cnc(N)nc6)cc5)CCC4)no3)cn2)C1` [Example 236, 2-[4-(3-{1-[4-(2-Amino-pyrimidin-5-yl)-phenyl]-cyclobutyl}-[1,2,4]oxadiazol-5-yl)-pyrazol-1-yl]-1-(3-methoxy-azetidin-1-yl)-ethanone] were 5.6 nM and 230 nM.
For the molecule `CCNc1cnc(-c2nc(C3(c4ccc(-c5cnc(N)nc5)cc4)CCC3)no2)cn1` [Example 63, 5-(4-{1-[5-(5-Ethylamino-pyrazin-2-yl)-1,2,4-oxadiazol-3-yl]-cyclobutyl}-phenyl)-pyrimidin-2-ylamine], the IC50 is 1 nM in experiment [1] and 25 nM in experiment [2].
Taken in the same sequence, the figures for `Nc1ncc(-c2ccc(C3(c4noc(-c5cccc(S(N)(=O)=O)c5)n4)CCC3)cc2)cn1` [Example 47, 3-(3-{1-[4-(2-Amino-pyrimidin-5-yl)-phenyl]-cyclobutyl}-1,2,4-oxadiazol-5-yl)-benzenesulfonamide] were 15 nM and 2400 nM.
The corresponding values for `Cn1cc(-c2nc(C3(c4ccc(-c5cnc(N)c(C#N)c5)cc4)CCC3)no2)cn1` [Example 261, 2-Amino-5-(4-{1-[5-(1-methyl-1H-pyrazol-4-yl)-[1,2,4]oxadiazol-3-yl]-cyclobutyl}-phenyl)-nicotinonitrile] are 9.3 nM and 240 nM.
Taken in the same sequence, the figures for `Nc1ncc(-c2ccc(C3(c4noc(-c5cc[nH]c(=O)c5)n4)CCC3)cc2)cn1` [Example 184, 4-(3-{1-[4-(2-Amino-pyrimidin-5-yl)-phenyl]-cyclobutyl}-1,2,4-oxadiazol-5-yl)-1H-pyridin-2-one] were 2.6 nM and 140 nM.
As for `COc1cc(-c2nc(C3(c4ccc(-c5cnc(N)nc5)cc4)CCC3)no2)ccn1` [Example 174, 5-(4-{1-[5-(2-Methoxy-pyridin-4-yl)-1,2,4-oxadiazol-3-yl]-cyclobutyl}-phenyl)-pyrimidin-2-ylamine], the concentration for half-maximal inhibition (IC50) was 5.3 nM in experiment [1] and 510 nM in experiment [2].
Taken in the same sequence, the figures for `Nc1ncc(-c2ccc(C3(c4noc(NCCO)n4)CCC3)cc2)cn1` [Example 74, 2-(3-{1-[4-(2-amino-pyrimidin-5-yl)-phenyl]-cyclobutyl}-1,2,4-oxadiazol-5-ylamino)-ethanol] were 71 nM and 520 nM.
Taken in the same sequence, the figures for `Nc1ncc(-c2ccc(C3(c4noc(Cc5ccccc5)n4)CCOCC3)cc2)cn1` [Example 150, 5-{4-[4-(5-Benzyl-1,2,4-oxadiazol-3-yl)-tetrahydro-pyran-4-yl]-phenyl}-pyrimidin-2-ylamine] were 180 nM and above 5000 nM.
Taken in the same sequence, the figures for `Nc1ncc(-c2ccc(C3(c4noc(-c5ccc(=O)[nH]c5)n4)CCC3)cc2)cn1` [Example 91, 5-(3-{1-[4-(2-Amino-pyrimidin-5-yl)-phenyl]-cyclobutyl}-1,2,4-oxadiazol-5-yl)-1H-pyridin-2-one] were 3.7 nM and 151 nM.
Consider `CN(C)C(=O)Cn1cc(-c2nc(C3(c4ccc(-c5ccc(N)nc5)cc4)CCC3)no2)cn1` [Example 301, 2-[4-(3-{1-[4-(6-Amino-pyridin-3-yl)-phenyl]-cyclobutyl}-[1,2,4]oxadiazol-5-yl)-pyrazol-1-yl]-N,N-dimethyl-acetamide], for which the IC50 in experiment [1] came out at 6 nM; in experiment [2], 140 nM.
Taken in the same sequence, the figures for `CC(C)(O)c1ccc(-c2nc(C3(c4ccc(-c5cnc(N)nc5)cc4)CCC3)no2)cn1` [Example 172] were 4.3 nM and 260 nM.
Taken in the same sequence, the figures for `Cc1cnc(-c2nc(C3(c4ccc(-c5cnc(N)nc5)cc4)CCC3)no2)cn1` [Example 22, 5-(4-{1-[5-(5-Methyl-pyrazin-2-yl)-1,2,4-oxadiazol-3-yl]-cyclobutyl}-phenyl)-pyrimidin-2-ylamine] were 2.6 nM and 140 nM.
With `Nc1ncc(-c2ccc(C3(c4noc(-c5cnn(CC(=O)N6CCOCC6)c5)n4)CCC3)cc2)cn1` [Example 134, 2-[4-(3-{1-[4-(2-Amino-pyrimidin-5-yl)-phenyl]-cyclobutyl}-1,2,4-oxadiazol-5-yl)-pyrazol-1-yl]-1-morpholin-4-yl-ethanone], the IC50 came to 5.8 nM in experiment [1] and 120 nM in experiment [2].
Taken in the same sequence, the figures for `CN(C)C(=O)c1ccc(-c2nc(C3(c4ccc(-c5cnc(N)nc5)cc4)CCC3)no2)cn1` [Example 29, 5-(3-{1-[4-(2-Amino-pyrimidin-5-yl)-phenyl]-cyclobutyl}-1,2,4-oxadiazol-5-yl)-pyridine-2-carboxylic acid dimethylamide] were 6.9 nM and 190 nM.
The corresponding values for `Nc1ncc(-c2ccc(C3(c4noc(-c5c[nH]c(=O)cn5)n4)CCC3)cc2)cn1` [Example 16, 5-(3-{1-[4-(2-Amino-pyrimidin-5-yl)-phenyl]-cyclobutyl}-1,2,4-oxadiazol-5-yl)-1H-pyrazin-2-one] are 3.3 nM and above 5000 nM.
Taken in the same sequence, the figures for `CN(C)CCn1cc(-c2nc(C3(c4ccc(-c5cnc(N)nc5)cc4)CCC3)no2)cn1` [Example 240, 5-[4-(1-{5-[1-(2-Dimethylamino-ethyl)-1H-pyrazol-4-yl]-[1,2,4]oxadiazol-3-yl}-cyclobutyl)-phenyl]-pyrimidin-2-ylamine] were 3.6 nM and 47 nM.
Consider `CS(=O)(=O)C1CCN(c2cnc(-c3nc(C4(c5ccc(-c6cnc(N)nc6)cc5)CCC4)no3)cn2)C1` (centres unmarked) [Example 203, 5-[4-(1-{5-[5-(3-Methanesulfonyl-pyrrolidin-1-yl)-pyrazin-2-yl]-1,2,4-oxadiazol-3-yl}-cyclobutyl)-phenyl]-pyrimidin-2-ylamine], for which the IC50 was 1.9 nM in experiment [1] and 130 nM in experiment [2].
Taken in the same sequence, the figures for `Nc1ncc(-c2ccc(C3(c4noc(-c5cnc(Cl)cn5)n4)CCC3)cc2)cn1` [Example 187, 5-(4-{1-[5-(5-chloro-pyrazin-2-yl)-1,2,4-oxadiazol-3-yl]-cyclobutyl}-phenyl)-pyrimidin-2-ylamine] were 8.4 nM and 3400 nM.
Consider `Cn1cc(-c2nc(C3(c4ccc(-c5cnc(N)nc5)cc4)CCC3)no2)cnc1=O` [Example 185, 5-(3-{1-[4-(2-Amino-pyrimidin-5-yl)-phenyl]-cyclobutyl}-1,2,4-oxadiazol-5-yl)-1-methyl-1H-pyrimidin-2-one], for which the IC50 came out at 7.3 nM in experiment [1] and 230 nM in experiment [2].
